Results as given in patent publication US20230047825A1, “ANTIMICROBIAL PEPTIDES” (priority 2019, published 2023).
Values after ≈ are worked out from the molar mass of the structure shown. Values joined by “and” are separate entries in the source; they are usually repeats but may differ in a detail not shown here. Equal values may be shown once. Read-outs that look alike come from different tables or passages of the source. Where a SMILES comes first, the peptide text is derived from it.

What was measured:
[1] = test system: five S. aureus strains; details: Mueller Hinton Broth
Experimental: Two broth mediums were used, Mueller Hinton Broth and RPMI 1640+5% fetal bovine serum. Test substances were evaluated in 11-point titrations and performed in duplicate.
The direct colony suspension method was used to prepare inoculated broth. Isolated colonies were taken from an 18-24 h culture plate. Optical density measurements (OD620nm) were used to estimate the bacterial density. […] The stock solutions were diluted by 2-fold serial titrations with their respective vehicles for a total of 11 concentrations.
A 4 μL aliquot of each dilution was added to 196 μL of broth medium seeded with the organism in wells of a sterilized 96 well polypropylene plate (Nunc™ 249949) using aluminum foil as cover. The final bacterial count was 2 to 8×10^5 CFU/mL. […] The final test article concentration range was 32 to 0.0313 μg/mL.
Each test substance dilution was evaluated in duplicate on one test occasion. […] Plates were incubated at 35-37° C. for 18 h. The test plates were visually examined and each well was visually scored for growth or complete inhibition of growth. The MIC value was recorded.

[2] = test system: EMRSA-15 lung infection
Experimental: Murine EMRSA-15 lung infection model. In one embodiment this was carried out using the method described previously,^58 an overnight culture of EMRSA-15 was prepared in tryptic soy broth (TSB). EMRSA-15 was cultured in TSB overnight at 37° C., adjusted to a starting OD600 of 0.025, and grown for additional 4 h for agar beads preparation. EMRSA-15 was embedded into agar beads by mixing the overnight culture with molten tryptic soy agar, which was then spun into warmed mineral oil. The preparation was cooled and centrifuged at 2,700 g, the remaining oil was eliminated and the beads were washed in sterile PBS. The colony forming unit (cfu) content of the beads slurry was subsequently quantified on TSA plates and the beads slurry then diluted to either 2×10^7 cfu/ml in sterile PBS to deliver a final dose of either 1×10^6 cfu/mouse. Animal work was performed in accordance with the Animals (Scientific Procedures) Act of 1986 (United Kingdom). On day 0, male C57B16J mice (8-10 weeks, Charles River) were anesthetized under Isoflurane and 50 μl inoculum of EMRSA-15 embedded in agar beads (10^6 cfu/mouse) was instilled directly into the respiratory tract via oropharyngeal dosing (o.a) to reduce severity associated with surgery. Sham control mice were inoculated with sterile PBS agar beads. […] Body weight was measured daily, and animals monitored at regular intervals for signs of pain and distress. 48 hours post pulmonary infection, animals were terminally euthanized using 25% Urethane via intra-peritoneal injection. Lungs, were removed and homogenized in 2 ml PBS. Samples were serially diluted 1:10 in PBS and plated for CFU count. Lung homogenates were then centrifuged at 14000 rpm for 30 min at 4° C. and the supernatants were stored at −80° C. for future analysis. For bronchoalveolar lavage fluid collection and analysis (total and differential cell count), a 22-gauge catheter was inserted into the trachea and BAL was recovered by instillation of 0.5 ml of sterile PBS three times and total cells counts were performed by adding Turks stain in a 1:1 ratio. Total cells were then enumerated on an improved Naubauer haemocytometer. BAL fluid was then centrifuged, and supernatants were stored at −20° C. Cytospin slides were prepared and 100 μl of BAL was added into a cytospin funnel and centrifuged at 1000 rpm for 1 minute on a medium acceleration. The slides were then stained using Diff-Quick (Dade, Biomap, Italy).
More suitably Murine EMRSA-15 lung infection model was carried out using the method described previously,^58 an overnight culture of EMRSA-15 was prepared in tryptic soy broth (TSB). EMRSA-15 was cultured in TSB overnight at 37° C., adjusted to a starting OD600 of 0.025, and grown for additional 4 h for agar beads preparation. EMRSA-15 was embedded into agar beads by mixing the overnight culture with molten tryptic soy agar, which was then spun into warmed mineral oil. The preparation was cooled and centrifuged at 2,700 g, the remaining oil was eliminated, and the beads were washed in sterile PBS. The colony forming unit (CFU) content of the beads slurry was subsequently quantified on TSA plates and the beads slurry then diluted to either 2×10^7 CFU/ml in sterile PBS to deliver a final dose of either 1×10^6 CFU/mouse. Animal work was performed in accordance with the Animals (Scientific Procedures) Act of 1986 (United Kingdom). On day 0, male C57B16J mice (8-10 weeks, Charles River) were anesthetized under Isoflurane and 50 μl inoculum of EMRSA-15 embedded in agar beads (10^6 CFU/mouse) was instilled directly into the respiratory tract via oropharyngeal dosing (o.a.) to reduce severity associated with surgery. Sham control mice were inoculated with sterile PBS agar beads.

## CC(C)C[C@@H](NC(=O)[C@@H](Cc1ccc(O)cc1)NC(=O)[C@@H](Cc1c[nH]cn1)NC(=O)[C@H](NC(=O)[C@@H](CC(C)C)NC(=O)[C@@H](C)NC(=O)[C@@H](C)NC(=O)[C@@H](CCCNC(=N)N)NC(=O)CNC(=O)[C@H](NC(=O)[C@@H](Cc1c[nH]cn1)NC(=O)[C@@H](CCCNC(=N)N)NC(=O)CNC(=O)[C@H](NC(=O)[C@@H](Cc1c[nH]cn1)NC(=O)[C@@H](C)NC(=O)[C@@H](C)NC(=O)[C@@H](CCCNC(=N)N)NC(=O)[C@@H](CCCNC(=N)N)NC(=O)[C@@H](Cc1ccccc1)NC(=O)[C@@H](Cc1ccccc1)NC(=O)[C@@H](CO)NC(=O)CNC(=O)[C@@H](Cc1c[nH]c2ccccc12)NC(=O)CN)C(C)C)C(C)C)[C@H](C)O)C(N)=O [D-pleurocidin-KR] (HELM PEPTIDE1{G.[dW].G.[dS].[dF].[dF].[dR].[dR].[dA].[dA].[dH].[dV].G.[dR].[dH].[dV].G.[dR].[dA].[dA].[dL].[dT].[dH].[dY].[dL].[am]}$$$$V2.0; N-terminus assumed)
[1]
  MIC against the five tested S. aureus strains: 2 µg/mL (≈ 0.709 µM)
[2]; cumulative dose 1.5 mg/kg/48h i.v.
  reduction in lung CFU: 0.9 log10
[2]; cumulative dose 15 mg/kg/48h i.v. (three doses at 4, 24, 30 h post infection), 15 mg/kg
  reduction in lung CFU: 1.14 log10 and 1.1 log10
[2]; cumulative dose 15 mg/kg/48h i.v. (three doses at 4, 24, 30 h post infection), listed as AMP2b, 15 mg/kg
  reduction in lung CFU: 1.14 log10
[2]; cumulative dose of 15 or 1.5 mg/kg/48h i.v.
  weight loss over the 48-hour infection period: mitigates this weight loss
[2]; following therapy, i.v.
  IL-6 and neutrophil recruitment in BAL: reduced
  macrophage numbers, TNFα and MCP-1 levels in BAL: No effects
[2]; i.v., cumulative dose of 15 or 1.5 mg/kg
  tolerability in murine lung infection model: well tolerated
[2]; lowest cumulative dose of 0.15 mg/kg i.v.
  weight loss over the 48-hour infection period: no observable effect
[2]; lowest dose of D-pleurocidin-KR (0.15 mg/kg cumulative)
  IL-6 and neutrophil recruitment in BAL: significant reduction
[2]; murine EMRSA-15 lung infection
  effective cumulative dose over 48 hrs: 1.5 mg/kg
[2]; vancomycin 600 mg/kg or the two higher D-pleurocidin-KR doses (15, 1.5 mg/kg cumulative)
  mouse KC levels in BAL: KC levels to fall to that of the uninfected group
